{"source": "paper PMC9145702", "about": "“Design, Synthesis and Evaluation of Fused Bicyclo[2.2.2]octene as a Potential Core Scaffold for the Non-Covalent Inhibitors of SARS-CoV-2 3CL^pro Main Protease” (Pharmaceuticals, 2022)", "key": {"[1]": {"target": "SARS-CoV-2 3CL^pro main protease (Severe acute respiratory syndrome coronavirus 2, UniProt P0DTD1)", "experiment": "FRET-based assay of SARS-CoV-2 3CL^pro main protease inhibition activity", "format": "biochemical", "conditions": "for screening result after accounting for effect on measured fluorescence: 64 μM, difference between 3CL(+) and 3CL(-) fluorescence; for first screening result (hit candidate): first FRET screening at 64 μM of each compound, before accounting for compound effect on fluorescence"}, "3CL^pro": {"system": "3CL^pro", "parameters": "method as in PMID 33817567", "conditions": "compared with 11a; read-out: inhibition activity; cited from earlier work"}}, "note": "Read-outs that look alike come from different tables or passages of the source.", "data": [{"smiles": "O=C(NC12C=CC(c3ccccc3)(C3C(=O)N(NC(=O)c4ccccn4)C(=O)C31)C1C(=O)N(NC(=O)c3ccccn3)C(=O)C12)c1ccccc1", "note": "(stereo not drawn) [11a, N-[8-Phenyl-2,3,3a,4a,5,6,7,7a,8,8a-decahydro-1,3,5,7-tetraoxo-2,6-bis(2-pyridylcarboamino)-4,8-ethenobenzo[1,2-c:4,5-c′]dipyrrol-4(1H)-yl]benzamide]", "values": [{"measurement": "screening result after accounting for effect on measured fluorescence", "setting": "[1]", "value": "remained as hit candidates"}, {"measurement": "IC50", "setting": "[1]; FRET assay, isolated SARS-CoV-2 3CL^pro, compound concentrations 200, 100, 50 and 25 μM", "value": 102, "unit": "µM"}, {"measurement": "first screening result (hit candidate)", "setting": "[1]", "value": "candidate hit compounds"}, {"measurement": "melting point", "value": "263 to 265", "unit": "°C"}]}, {"smiles": "O=C(NN1C(=O)C2C(C1=O)C1(c3ccccc3)C=CC2(NC(=O)c2ccccc2)C2C(=O)N(NC(=O)c3cccnc3)C(=O)C21)c1cccnc1", "note": "(stereo not drawn) [11b, N-[8-Phenyl-2,3,3a,4a,5,6,7,7a,8,8a-decahydro-1,3,5,7-tetraoxo-2,6-bis(3-pyridylcarboamino)-4,8-ethenobenzo[1,2-c:4,5-c′]dipyrrol-4(1H)-yl]benzamide]", "values": [{"measurement": "melting point", "value": "278 to 282", "unit": "°C"}]}, {"smiles": "O=C(NN1C(=O)C2C(C1=O)C1(c3ccccc3)C=CC2(NC(=O)c2ccccc2)C2C(=O)N(NC(=O)c3ccncc3)C(=O)C21)c1ccncc1", "note": "(stereo not drawn) [11c, N-[8-Phenyl-2,3,3a,4a,5,6,7,7a,8,8a-decahydro-1,3,5,7-tetraoxo-2,6-bis(4-pyridylcarboamino)-4,8-ethenobenzo[1,2-c:4,5-c′]dipyrrol-4(1H)-yl]benzamide]", "values": [{"measurement": "melting point", "value": "289 to 293", "unit": "°C"}]}, {"smiles": "CC1=CC2(c3ccccc3)C3C(=O)N(NC(=O)c4ccccn4)C(=O)C3C1(NC(=O)c1ccccc1)C1C(=O)N(NC(=O)c3ccccn3)C(=O)C12", "note": "(stereo not drawn) [11d, N-[8-Phenyl-2,3,3a,4a,5,6,7,7a,8,8a-decahydro-10-methyl-1,3,5,7-tetraoxo-2,6-bis(2-pyridylcarboamino)-4,8-ethenobenzo[1,2-c:4,5-c′]dipyrrol-4(1H)-yl]benzamide]", "values": [{"measurement": "melting point", "value": "271 to 274", "unit": "°C"}]}, {"smiles": "CC1=CC2(c3ccccc3)C3C(=O)N(NC(=O)c4cccnc4)C(=O)C3C1(NC(=O)c1ccccc1)C1C(=O)N(NC(=O)c3cccnc3)C(=O)C12", "note": "(stereo not drawn) [11e, N-[8-Phenyl-2,3,3a,4a,5,6,7,7a,8,8a-decahydro-10-methyl-1,3,5,7-tetraoxo-2,6-bis(3-pyridylcarboamino)-4,8-ethenobenzo[1,2-c:4,5-c′]dipyrrol-4(1H)-yl]benzamide]", "values": [{"measurement": "IC50", "setting": "[1]", "value": "~200", "unit": "µM"}, {"measurement": "screening result after accounting for effect on measured fluorescence", "setting": "[1]", "value": "remained as hit candidates"}, {"measurement": "first screening result (hit candidate)", "setting": "[1]", "value": "candidate hit compounds"}, {"measurement": "melting point", "value": "345 to 347 °C (dec.)"}]}, {"smiles": "O=C(NC12C=CC(c3cccs3)(C3C(=O)N(NC(=O)c4ccccn4)C(=O)C31)C1C(=O)N(NC(=O)c3ccccn3)C(=O)C12)c1ccccc1", "note": "(stereo not drawn) [11f, N-[2,3,3a,4a,5,6,7,7a,8,8a-Decahydro-1,3,5,7-tetraoxo-2,6-bis(2-pyridylcarboamino)-8-(2-thienyl)-4,8-ethenobenzo[1,2-c:4,5-c′]dipyrrol-4(1H)-yl]benzamide]", "values": [{"measurement": "first screening result (hit candidate)", "setting": "[1]", "value": "candidate hit compounds"}, {"measurement": "melting point", "value": "288 to 291 °C (dec.)"}]}, {"smiles": "O=C(NN1C(=O)C2C(C1=O)C1(c3cccs3)C=CC2(NC(=O)c2ccccc2)C2C(=O)N(NC(=O)c3cccnc3)C(=O)C21)c1cccnc1", "note": "(stereo not drawn) [11g, N-[2,3,3a,4a,5,6,7,7a,8,8a-Decahydro-1,3,5,7-tetraoxo-2,6-bis(3-pyridylcarboamino)-8-(2-thienyl)-4,8-ethenobenzo[1,2-c:4,5-c′]dipyrrol-4(1H)-yl]benzamide]", "values": [{"measurement": "melting point", "value": "259 to 262 °C (dec.)"}]}, {"smiles": "O=C(NN1C(=O)C2C(C1=O)C1(c3cccs3)C=CC2(NC(=O)c2ccccc2)C2C(=O)N(NC(=O)c3ccncc3)C(=O)C21)c1ccncc1", "note": "(stereo not drawn) [11h, N-[2,3,3a,4a,5,6,7,7a,8,8a-Decahydro-1,3,5,7-tetraoxo-2,6-bis(4-pyridylcarboamino)-8-(2-thienyl)-4,8-ethenobenzo[1,2-c:4,5-c′]dipyrrol-4(1H)-yl]benzamide]", "values": [{"measurement": "melting point", "value": "310 to 312", "unit": "°C"}]}, {"smiles": "O=C(NC12C=CC(c3ccco3)(C3C(=O)N(NC(=O)c4ccccn4)C(=O)C31)C1C(=O)N(NC(=O)c3ccccn3)C(=O)C12)c1ccccc1", "note": "(stereo not drawn) [11i, N-[8-(2-Furyl)-2,3,3a,4a,5,6,7,7a,8,8a-decahydro-1,3,5,7-tetraoxo-2,6-bis(2-pyridylcarboamino)-4,8-ethenobenzo[1,2-c:4,5-c′]dipyrrol-4(1H)-yl]benzamide]", "values": [{"measurement": "first screening result (hit candidate)", "setting": "[1]", "value": "candidate hit compounds"}, {"measurement": "melting point", "value": "332 to 334", "unit": "°C"}]}, {"smiles": "O=C(NN1C(=O)C2C(C1=O)C1(c3ccco3)C=CC2(NC(=O)c2ccccc2)C2C(=O)N(NC(=O)c3cccnc3)C(=O)C21)c1cccnc1", "note": "(stereo not drawn) [11j, N-[8-(2-Furyl)-2,3,3a,4a,5,6,7,7a,8,8a-decahydro-1,3,5,7-tetraoxo-2,6-bis(3-pyridylcarboamino)-4,8-ethenobenzo[1,2-c:4,5-c′]dipyrrol-4(1H)-yl]benzamide]", "values": [{"measurement": "melting point", "value": "272 to 276", "unit": "°C"}]}, {"smiles": "O=C(NN1C(=O)C2C(C1=O)C1(c3ccco3)C=CC2(NC(=O)c2ccccc2)C2C(=O)N(NC(=O)c3ccncc3)C(=O)C21)c1ccncc1", "note": "(stereo not drawn) [11k, N-[8-(2-Furyl)-2,3,3a,4a,5,6,7,7a,8,8a-decahydro-1,3,5,7-tetraoxo-2,6-bis(4-pyridylcarboamino)-4,8-ethenobenzo[1,2-c:4,5-c′]dipyrrol-4(1H)-yl]benzamide]", "values": [{"measurement": "melting point", "value": "309 to 311", "unit": "°C"}]}, {"smiles": "COc1ccc(C2=CC3(NC(=O)c4ccccc4)C4C(=O)N(NC(=O)c5ccccn5)C(=O)C4C2(C)C2C(=O)N(NC(=O)c4ccccn4)C(=O)C23)cc1", "note": "(stereo not drawn) [11l, N-[2,3,3a,4a,5,6,7,7a,8,8a-Decahydro-8-methyl-9-(4-methoxyphenyl)-1,3,5,7-tetraoxo-2,6-bis(2-pyridylcarboamino)-4,8-ethenobenzo[1,2-c:4,5-c′]dipyrrol-4(1H)-yl]benzamide]", "values": [{"measurement": "melting point", "value": "298 to 303 °C (dec.)"}]}, {"smiles": "COc1ccc(C2=CC3(NC(=O)c4ccccc4)C4C(=O)N(NC(=O)c5cccnc5)C(=O)C4C2(C)C2C(=O)N(NC(=O)c4cccnc4)C(=O)C23)cc1", "note": "(stereo not drawn) [11m, N-[2,3,3a,4a,5,6,7,7a,8,8a-Decahydro-8-methyl-9-(4-methoxyphenyl)-1,3,5,7-tetraoxo-2,6-bis(3-pyridylcarboamino)-4,8-ethenobenzo[1,2-c:4,5-c′]dipyrrol-4(1H)-yl]benzamide]", "values": [{"measurement": "melting point", "value": "365 to 369 °C (dec.)"}]}, {"smiles": "COc1ccc(C2=CC3(NC(=O)c4ccccc4)C4C(=O)N(NC(=O)c5ccncc5)C(=O)C4C2(C)C2C(=O)N(NC(=O)c4ccncc4)C(=O)C23)cc1", "note": "(stereo not drawn) [11n, N-[2,3,3a,4a,5,6,7,7a,8,8a-Decahydro-8-methyl-9-(4-methoxyphenyl)-1,3,5,7-tetraoxo-2,6-bis(4-pyridylcarboamino)-4,8-ethenobenzo[1,2-c:4,5-c′]dipyrrol-4(1H)-yl]benzamide]", "values": [{"measurement": "melting point", "value": "387 to 390 °C (dec.)"}]}, {"smiles": "C/C(=N\\NC(=O)c1cccnc1)C1=CC2(NC(=O)c3ccccc3)C3C(=O)N(NC(=O)c4cccnc4)C(=O)C3C1(C)C1C(=O)N(NC(=O)c3cccnc3)C(=O)C12", "note": "(stereo not drawn) [11o, N-[2,3,3a,4a,5,6,7,7a,8,8a-Decahydro-8-methyl-1,3,5,7-tetraoxo-2,6-bis(3-pyridyl-carboamino)-9-(1-(N-[3-pyridylcarbo]hydrazonyl)eth-1-yl)-4,8-ethenobenzo[1,2-c:4,5-c′]dipyrrol-4(1H)-yl]benzamide]", "values": [{"measurement": "melting point", "value": "284 to 286", "unit": "°C"}]}, {"smiles": "Cc1c(O)cccc1C(=O)N[C@@H](CSc1ccccc1)[C@H](O)CN1C[C@H]2CCCC[C@H]2C[C@H]1C(=O)NC(C)(C)C", "note": "[nelfinavir]", "values": [{"measurement": "IC50", "setting": "3CL^pro", "value": "~40", "unit": "µM"}]}]}
